Test results from US20110189241A1, “Process For Controlling The Particle Size of A [3-(Trifluoromethyl)Phenyl]-1-Aminopropane Derivative” (Medichem, S.A., priority 2008, published 2011).

Experiment: Particle size distribution (Malvern Mastersizer S, laser diffraction, by volume)
Format: physicochemical
Details: for particle size D[v, 0.5]: crystals as isolated after crystallization from isobutyl acetate and drying, mean of nine readings, hydrochloride
Procedure: The particle size for cinacalcet hydrochloride was measured using a Malvern Mastersizer S particle size analyzer with an MS1 Small Volume Sample Dispersion Unit stirred cell. A 300RF mm lens and a beam length of 2.4 mm were used. Samples for analysis were prepared by dispersing a weighed amount of cinacalcet hydrochloride (approximately 60 mg) in 20 mL of sample dispersant, previously prepared by dilution of 1.5 g of Soybean Lecithin to 200 mL with Isopar G. The suspension was delivered drop-wise to the background-corrected measuring cell filled with dispersant (Isopar G) until the obscuration reached the desired level. Nine repeated readings of the volume distributions were taken. For characterization, the values of D50 and D90 (by volume) were selected and reported as the mean of the nine values measured.

| particle size D[v, 0.9] (crystals as isolated after crystallization (Example 9)) | particle size D[v, 0.5] | particle size D[v, 0.9] (crystals as isolated after crystallization (Example 4)) | SMILES |
| --- | --- | --- | --- |
| 518 µm | 74.0 μm |  | C[C@@H](NCCCc1cccc(C(F)(F)F)c1)c1cccc2ccccc12.Cl [Example 9, cinacalcet hydrochloride] |
|  | 65.0 μm |  | C[C@@H](NCCCc1cccc(C(F)(F)F)c1)c1cccc2ccccc12.Cl [Example 6, cinacalcet hydrochloride] |
|  |  | 404 µm | C[C@@H](NCCCc1cccc(C(F)(F)F)c1)c1cccc2ccccc12.Cl [Example 4, cinacalcet hydrochloride] |
